Article PMC7012012, “Bioassay-guided isolation, identification of compounds from Origanum rotundifolium and investigation of their antiproliferative and antioxidant activities” (Pharmaceutical Biology, 2017)
Several values for one entry are separate records, joined by “and”; a condition that tells them apart may be missing. Equal values may be shown once.

Columns and labels:
[1] = ABTS radical cation scavenging assay; settings: 30 min, absorbance 734 nm; unit printed only in abstract
Experimental: 2,2″-Azino-bis (3-ethylbenzthiazoline-6-sulfonic acid) (ABTS) cation radical scavenging assay based on the decreasing ABTS radical cation, a blue/green chromophore with absorption at […], in comparison to that of BHA, BHT and Trolox. This method was executed as in the literature (Re et al. [1999]). Treatment of ABTS (2.0 mM) in phosphate buffer (0.1 M, pH 7.4) with potassium persulfate (K2S2O8) (2.45 mM) gave the ABTS^•+, kept at dark at Rt for 4 h. Initially, dilution of ABTS^•+ was performed with sodium phosphate buffer (pH 7.4, 0.1 M) to obtain absorbance 0.750 ± 0.025 at 734 nm. After all, ABTS^•+ solution (1.0 mL) was added to each extract solution in ethanol (3.0 mL) at different concentration (2.5–20 μg/mL). After 30 min, the inhibition was calculated for each concentration relative to a blank absorbance. The scavenging ability of ABTS^•+ was calculated by given equation:
ABTS^•+scavenging activity (%)=[(Ac – As)/Ac]*100 in which, Ac is the initial concentration of ABTS^•+ and As is the absorbance of the remaining concentration of ABTS^•+ in the samples.

[2] = Ferric ions (Fe3+) reducing antioxidant power assay (FRAP); settings: 10 μg/mL
Experimental: Different concentrations of samples (5–40 μg/mL) in 1 mL of deionized water were mixed with sodium phosphate buffer (1.25 mL, 0.2 M, pH 6.6) and potassium ferricyanide [K3Fe(CN)6] (1.25 mL, 1%). After the incubation of the mixture at 50 °C for 20 min, trichloroacetic acid (1.25 mL, 10%) and FeCl3 (0.25 mL, 0.1%) were added to the reaction medium. The reaction mixture was vortexed thoroughly and absorbance measurement at 700 nm was executed in a spectrophotometer.

[3] = DPPH free radical scavenging assay; settings: 30 min, absorbance 517 nm
Experimental: The free radical scavenging activities of extracts and standards were evaluated by 2,2-diphenyl-1-picrylhydrazil (DPPH^•) (Blois [1958]). To a different concentration of 3.0 mL of extract (3.0–20 μg/mL) in ethanol, DPPH^• solution (1.0 mL, 0.26 mM) were added. After that it is stirred and kept at Rt for 30 min, The absorbance of the mixture was executed at 517 nm in a spectrophotometer. The activity was calculated by the below equation. DPPH• scavenging effect %=Ac-As/Ac×100
In which, Ac and As are the control and sample absorbance, respectively.

[4] = tested on: HT29 (human colon carcinoma) cell lines; assay: BrdU cell proliferation ELISA, HT29; type: cell-based; settings: for Tumour specificity HT29: HT29 relative to Vero
Experimental: (§1) Anticancer potential of isolated compounds was investigated on C6, HT29, HeLa and Vero cell lines. These cells were sustained with Dulbecco’s modified eagle’s medium, complemented with foetal bovine serum and PenStep solution (ATCC, American Type Culture Collection). The old medium was aspirated out of the plate while cells had reached a confluence of 80% then cells were removed from the flasks using trypsin-EDTA (4 mL) and centrifuged. Afterward, cell pellet was suspended with DMEM and was counted to gain a final concentration as 5 × 10^4 cells/mL, inoculated into wells (100 μL cells/well).
(§2) The antiproliferative activity of compounds against various cell lines (C6, HeLa and Vero cells) was tested by cell proliferation assay using BrdU Cell Proliferation ELISA kit. A cell suspension containing nearly 5 × 10^3 cells in 100 μL was conveyed into the well cell plates (96-well cell). The treatments of cells with compounds in DMSO and 5-Florouracil (5 FU) in DMSO separately at concentration 5–100 μg/mL were carried out. The last volume of the wells was adapted to 200 μL by DMEM and mixture was incubated at 37 °C with 5% CO2 for overnight (Okten et al. [2013]).
(§3) The half inhibitory concentration of the isolated compounds and standards was calculated by XLfit5 software (IDBS) and explicated in μM at 95% confidence levels (Table 1). The proliferation results were recorded as the per cent inhibition of the compounds and control substances. The following formula was used for the calculation of inhibition % Inhibition = [Asample– Acontrol/Acontrol]×100
(§4) where Asample is the absorbance of the compounds and Acontrol is the absorbance of the DMSO.

[5] = tested on: HeLa (human cervix carcinoma) cell lines; assay: BrdU cell proliferation ELISA, HeLa; type: cell-based; settings: for Tumour specificity HeLa: HeLa relative to Vero; for IC50: BrdU ELISA
Experimental: as §1, §2, §3, §4

[6] = tested on: Vero (African green monkey kidney epithelium) cells; assay: BrdU cell proliferation ELISA, Vero; type: cell-based; settings: for IC50: BrdU ELISA; for Antiproliferative activity on Vero (in words): 5-100 μg/mL
Experimental: as §1, §2, §3, §4

[7] = tested on: C6 (rat brain tumour) cell lines; assay: BrdU cell proliferation ELISA, C6; type: cell-based; settings: for IC50: C6, BrdU ELISA; for Tumour specificity C6: C6 relative to Vero; for Antiproliferative activity on C6 (in words): C6, 5-100 μg/mL
Experimental: as §1, §2, §3, §4

[8] = Homo sapiens, HT-29, HT29, BrdU ELISA

| Compound | ABTS radical cation scavenging IC50 [1] | Reducing power (absorbance at 700 nm) [2] | IC50 [3] [µM] | IC50 ([4]; HT29, BrdU ELISA) [µM] | Tumour specificity HT29 [4] | Tumour specificity HeLa [5] | IC50 ([5]; HeLa) [µM] | IC50 [6] [µM] | IC50 [7] [µM] | IC50 ([7]; listed as cisplatin) [µM] | Tumour specificity C6 [7] | Antiproliferative activity on HT29 (in words) ([4]; HT29, 5-100 μg/mL) | Antiproliferative activity on HeLa (in words) ([5]; HeLa, 5-100 μg/mL) | Antiproliferative activity on Vero (in words) [6] | Antiproliferative activity on C6 (in words) [7] | IC50 [4, 8] [µM] | IC50 ([5]; Homo sapiens, HeLa) [µM] | IC50 ([6]; Chlorocebus sabaeus) [µM] | IC50 ([7]; Rattus norvegicus) [µM] |
| --- | --- | --- | --- | --- | --- | --- | --- | --- | --- | --- | --- | --- | --- | --- | --- | --- | --- | --- | --- |
| COc1ccc(O)c(C(C)(C)C)c1 [BHA, butylated hydroxyanisole, reference compound] | 7.6 µg/mL | 1.12 | 12.9 |  |  |  |  |  |  |  |  |  |  |  |  |  |  |  |  |
| Cc1cc(C(C)(C)C)c(O)c(C(C)(C)C)c1 [BHT, Butylated hydroxytoluene, reference compound] | 5.0 µg/mL | 0.81 | 196 |  |  |  |  |  |  |  |  |  |  |  |  |  |  |  |  |
| N.N.[Cl][Pt][Cl] [Cisplatin, reference compound] |  |  |  | 48.6 | 0.84 | 0.92 | 44.2 | 40.8 | 61.5 | 61.5 | 0.66 |  |  |  |  |  |  |  |  |
| O=c1cc(-c2ccc(O)cc2)oc2cc(O)cc(O)c12 [Compound 1, Apigenin] | 8.9 µg/mL | 0.14 | 173 |  |  |  |  |  |  |  |  | has not a noteworthy effect | did not reveal the noticeable activity | did not reveal the remarkable activity | Noticeable effect has not been detected |  |  |  |  |
| O=C(/C=C/c1ccc(O)c(O)c1)O[C@H](Cc1ccc(O)c(O)c1)C(=O)O [Compound 5, rosmarinic acid] | 14.2 µg/mL | 0.60 | 47.2 | 262 | 1.07 | 1.19 |  |  | 251 |  | 1.11 |  |  | good effect |  | 262 | 233 | 279 | 252 |
| O=C(OC(Cc1ccc(O)c(O)c1)C(=O)O)c1cc(-c2ccc(O)c(O)c2)c2cc(O)c(O)cc2c1 (centres unmarked) [Compound 6, globoidnan A] | 4.6 µg/mL | 1.25 | 22.4 | 136 |  |  | 140 |  | 169 |  |  |  |  | did not reveal the remarkable activity |  | 136 | 140 |  | 169 |
| Cc1c(C)c2c(c(C)c1O)CCC(C)(C(=O)O)O2 (centres unmarked) [Trolox, reference compound] | 13.8 µg/mL | 0.61 |  |  |  |  |  |  |  |  |  |  |  |  |  |  |  |  |  |
| caprolactam [Compound 4] | 61.5 µg/mL | 0.08 | 329 |  |  |  |  |  |  |  |  |  |  | did not reveal the remarkable activity | Noticeable effect has not been detected |  |  |  |  |
| vitexin [Compound 3] | 3.6 µg/mL and 3.7 µg/mL | 0.27 | 31.4 | 32.5 | 1.43 | 1.31 | 35.6 | 46.7 | 41.6 |  | 1.12 |  |  | effective at high concentrations |  |  |  |  |  |
